Assays:
[1] = system: dizziness, including vertigo and Menière's disorder; assay: Animal models for dizziness, including vertigo and Menière's disorder; type: in vivo; details: animal models not specified; no data given
From the text: Animal models for dizziness, vertigo and Menière's disorder include, but are not limited
Electronystagmography in rats (see Fischer, A. J. et al., “Electronystagmography in the laboratory rat”, Acta Otolaryngol., 88, 412-419,1979).
Gentamycin induced nystagmus in guinea pigs (see Okuda, T. et al., “Inner ear changes with intracochlear gentamicin administration in Guinea pigs”, Laryngoscope, 114, 694-697, 2004).
Unilateral peripheral vestibular deafferentation in guinea pigs (see Dutia, M. B. et al., “The opioid receptor antagonist, naloxone, enhances ocular motor compensation in guinea pig following peripheral vestibular deafferentation”, Exp. Neurol., 141,141-144,1996), or rats (see Guilding, C. et al., “11-Beta-hydroxysteroid dehydrogenase type 1 activity in medial vestibular nucleus and cerebellum after unilateral vestibular deafferentation in the rat”, Stress, 7(2),127-130, 2004).
Unilateral labyrinthectomy in rats (see Johnston, A. R. et al., “Differential regulation of GABA(A) and GABA(B) receptors during vestibular compensation”, Neuroreport.;12(3), 597-600, 2001; and Inoue, S. et al., “Glutamate release in the rat medial vestibular nucleus following unilateral labyrinthectomy using in vivo microdialysis”, Brain Res., 991(1-2), 78-83, 2003). […]

[2] = system: AMPA receptors; details: qualitative statement; affinity for AMPA receptors said to have been published; cited from earlier work

Cc1nc2n(c1C)N=C(c1ccccc1)c1cc3c(cc1C2)OCO3 [8,9-dimethyl-5-phenyl-11H-1,3-dioxolo[4,5-h]imidazo[1,2-c][2,3]benzo-diazepine]
activity in animal models for dizziness, including vertigo and Menière's disorder [1]: active | AMPA receptor antagonistic activity [2]: AMPA receptor antagonistic activity
